According to US20210106566A1, “PHARMACEUTICAL COMPOSITION FOR TREATING AND/OR PREVENTING PERIPHERAL NEUROPATHY OR SPINAL CORD INJURY” (NATIONAL UNIVERSITY CORPORATION NAGOYA UNIVERSITY, priority 2015, published 2021):

Tests used:
[1] = test system: mouse sciatic nerve autologous transplantation model; experiment: Mouse sciatic nerve autologous transplantation model: tibialis anterior muscle cross sections; type: in vivo; settings: 30 mg/kg/day, 8 weeks after surgery
Description: Adult male C57BL/6J mice (8 weeks old; 19.5-22.0 g) were purchased from Charles River. The mice were anesthetized with isoflurane and underwent gluteal muscle incision under a sterile condition to expose the sciatic nerve in the left leg. The sciatic nerve was cut at the following two sites (1) and (2): (1) the site 3 mm distal to the first bifurcation of biceps femoris (hereinafter referred to as proximal transection site) (2) the site 3 mm distal to the proximal transection site (hereinafter referred to as distal transection site) The excised nerve segment with a length of 3 mm was confirmed to be completely cut at the two sites. The perineurium was sutured with nylon thread (10-0 black) at the proximal transection site and the distal transection site under a microscope. The remaining thread was used as a marker for finding the nerve transection site in the sacrifice of the mice. In order to reduce DMSO toxicity, a solution of 60 mg/mL zonisamide in 100% DMSO was prepared and the solution was diluted in olive oil to give a solution of 3 mg/mL zonisamide in 5% DMSO. […] Myelin sheath formation in the sciatic nerve was analyzed in six mice in each group. […] The number and area of myelinated axons in the sciatic nerve were manually measured using ImageJ software in a blinded fashion. […]

[2] = test system: Chrne, Colq, and Rapsn; experiment: Mouse sciatic nerve autologous transplantation model: mRNA in gastrocnemius muscle; type: in vivo; settings: 8 weeks after surgery, 30 mg/kg/day
Description: Adult male C57BL/6J mice (8 weeks old; 19.5-22.0 g) were purchased from Charles River. The mice were anesthetized with isoflurane and underwent gluteal muscle incision under a sterile condition to expose the sciatic nerve in the left leg. The sciatic nerve was cut at the following two sites (1) and (2): (1) the site 3 mm distal to the first bifurcation of biceps femoris (hereinafter referred to as proximal transection site) (2) the site 3 mm distal to the proximal transection site (hereinafter referred to as distal transection site) The excised nerve segment with a length of 3 mm was confirmed to be completely cut at the two sites. The perineurium was sutured with nylon thread (10-0 black) at the proximal transection site and the distal transection site under a microscope. The remaining thread was used as a marker for finding the nerve transection site in the sacrifice of the mice. In order to reduce DMSO toxicity, a solution of 60 mg/mL zonisamide in 100% DMSO was prepared and the solution was diluted in olive oil to give a solution of 3 mg/mL zonisamide in 5% DMSO. The control solution (5% DMSO) or zonisamide (3 mg/mL×about 0.2 mL) at 30 mg/kg/day was administered to the stomach using a disposable probe needle (flexible type, Fuchigami) once a day for 1 to 8 weeks from the end of surgery until sacrifice. Myelin sheath formation in the sciatic nerve was analyzed in six mice in each group. One week after the sciatic nerve autologous transplantation, the sciatic nerve was transected at “the proximal transection site” and “the site 3 mm distal to the distal transection site” to excise a nerve segment with a length of 6 mm. […] The number and area of myelinated axons in the sciatic nerve were manually measured using ImageJ software in a blinded fashion. […] The mRNA expression levels of Bdnf, Ngf, Ntf4, Ntrk1, Ntrk2, Map2, Mapt, Gap43, Chrne, Colq, and Rapsn were quantified in a manner similar to Example 5.

[3] = test system: NSC34 cells; experiment: Screening of neurite length in NSC34 cells; type: cell-based, mouse; settings: dose dependency, FIG. 1
Method: The cells were seeded in DMEM/F12 differentiation medium (Invitrogen) supplemented with 1% FBS and […] doxycycline in a 96-well plate at 1.6×10^3 cells/cm^2 to induce the expression of GFP. […] Subsequently, cell nuclei were stained with Hoechst 33342 (1:100,000, Sigma Aldrich). Sixteen images per well were acquired on ArrayScan VTI HCS Reader (Thermo Scientific Cellomics). The average of neurite length in each well was automatically determined using Neuronal Profiling v4.0 BioApplication (Thermo Scientific Cellomics).

[4] = test system: Bdnf, Ngf, Ntf4, Ntrk1, Ntrk2, Map2, Mapt, and Gap43; experiment: Real-time RT-PCR of genes associated with neurite outgrowth in primary motor neurons; type: cell-based, mouse
Description: Total RNA was isolated, using Trizol (Thermo Fisher Scientific), from primary motor neurons cultured with 0, 1, or 10 μmol/L zonisamide. Similarly, total RNA was isolated from sciatic nerve segments with a length of 3 mm or from tibialis anterior muscle. Single-stranded cDNA was synthesized using ReverTra Ace (Toyobo). The mRNA expression levels of Bdnf, Ngf, Ntf4, Ntrk1, Ntrk2, Map2, Mapt, and Gap43 were quantified using LightCycler 480 Real-Time PCR (Roche) and SYBR Green (Takara). The mRNA levels were normalized with the expression level of Gapdh.

[5] = 2 and 3 days after zonisamide addition

`NS(=O)(=O)Cc1noc2ccccc12` [Zonisamide, 3-sulfamoylmethyl-1,2-benzisoxazole] was tested, and the “denervation atrophy of tibialis anterior muscle (cross-sectional area of muscle fibers)” value [1] was “promoted recovery from denervation atrophy”, the “expression level of Chrne” value [2] was “increased” and the “expression level of Colq” value [2] was “increased”. For the same compound, the “expression level of Rapsn” value [2] was “increased”, the “axonal growth (average neurite length) in NSC34 cells” value [3] was “dose-dependent axonal growth” and the “mRNA level of GAP43” value [4] was “not increased until day 3”. For the same compound, the “mRNA level of MAP2” value [4] was “not increased until day 3”, the “mRNA level of Mapt” value [4] was “not increased until day 3” and the “mRNA level of Ntrk1” value [4] was “increased”. For the same compound, the “mRNA level of Ntrk2” value [4] was “increased”, the “mRNA level of BDNF” value [4, 5] was “increased” and the “mRNA level of NGF” value [4, 5] was “increased”. For the same compound, the “mRNA level of NTF4” value [4, 5] was “increased”.
